One block for each molecule: values may come before it.
Assays:
CAL-51 [1] = settings: 72 h
Method in brief: (§1)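 EC50 was fitted from dose-response curves and censored at the highest concentration tested. To build those curves, breast cancer cell lines (20 µl suspension) were seeded into 384-well plates containing compound at 5 concentrations in 10-fold steps over a compound-specific 10,000-fold range and incubated for 72 h. Readouts were CellTox Green fluorescence (485/520 nm) for cell death and then CellTiter-Glo luminescence for viability, with each plate normalised to 0.1 % DMSO and a positive kill control.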

CAL-120 [2] = settings: 72 h
Method: (§2)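 Drug sensitivity and resistance testing (DSRT) of breast cancer cell lines in 384-well plates, 5 concentrations in 10-fold dilutions over a compound-specific 10,000-fold range. After 72 h, cytotoxicity was read by CellTox Green fluorescence and viability by CellTiter-Glo luminescence (multiplexed), normalised to DMSO and benzethonium chloride controls. EC50 is the inflection point of the fitted dose-response curve (bottom asymptote free, so it can be relative for partial curves) and is censored at the highest tested concentration. Rows with DSS 0 (no meaningful response) were excluded.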

MDA-MB-468 [3] = settings: 72 h
Method: as §2

HDQ-P1 [4] = assay: drug sensitivity score (DSS), CellTox Green (DSS (AUC-based score)); higher = stronger drug effect (viability inhibition or cytotoxicity); extreme values may be limits of the assay; settings: incubation time: 72 h
Method in brief: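 Breast cancer cells were seeded into 384-well plates containing compound at 5 concentrations in 10-fold steps over a compound-specific 10,000-fold range and incubated 72 h. After CellTox Green and CellTiter-Glo readings, each plate was normalised to 0.1 % DMSO and a positive kill control. The drug sensitivity score rests on the area under the fitted dose-response curve.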

CAL-51 [5] = settings: 72 h; remark: listed apart in the source
Method in brief: (§3)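 Each 384-well plate was pre-loaded with compound dissolved in 5 µl medium, received breast cancer cells in 20 µl suspension, and was incubated 72 h. A 2.5 µl addition of CellTiter-Blue for 2 h at 37 °C was followed by a fluorescence read at 560/590 nm. Data were normalised per plate to vehicle and a positive kill control and checked by Z'-factor. EC50 was fitted from the percent-inhibition dose-response curve, censored at the highest concentration, excluding rows with a drug sensitivity score of zero.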

HCC1937 [6] = settings: 72 h
Method in brief: as §3

CAL-51 [7] = settings: 72 h; remark: listed apart in the source
Method: as §2

BT-549 [8] = settings: 72 h
Method in brief: as §1

HCC1599 = settings: 72 h
Method in brief: as §1

MDA-MB-436 [9] = settings: 72 h
Method in brief: as §1

BT-549 [10] = settings: 72 h; remark: listed apart in the source
Method in brief: as §3

CAL-120 [11] = settings: 72 h; remark: listed apart in the source
Method in brief: as §3

Hs578T [12] = settings: 72 h
Method in brief: as §3

MDA-MB-436 [13] = settings: 72 h; remark: listed apart in the source
Method in brief: as §3

MDA-MB-468 [14] = settings: 72 h; remark: listed apart in the source
Method in brief: as §3

MDA-MB-436 [15] = settings: 72 h; remark: listed apart in the source
Method: as §2

CAL-148 [16] = settings: 72 h
Method in brief: as §1

DU-4475 [17] = settings: 72 h
Method in brief: as §1

HCC1143 [18] = settings: 72 h
Method in brief: as §1

HCC1937 [19] = settings: 72 h; remark: listed apart in the source
Method in brief: as §1

Hs578T [20] = settings: 72 h; remark: listed apart in the source
Method in brief: as §1

SK-BR-3 [21] = settings: 72 h
Method in brief: as §1

CAL-148 [22] = settings: 72 h; remark: listed apart in the source
Method: as §2

CAL-120 [23] = settings: 72 h; remark: listed apart in the source
Method in brief: as §1

CAL-85-1 [24] = settings: 72 h
Method in brief: as §1

MCF-10A [25] = settings: 72 h
Method in brief: as §1

MDA-MB-231 [26] = settings: 72 h
Method in brief: as §1

MDA-MB-453 [27] = settings: 72 h
Method in brief: as §1

MFM-223 [28] = settings: 72 h
Method in brief: as §1

CAL-148 [29] = settings: 72 h; remark: listed apart in the source
Method in brief: as §3

CAL-85-1 [30] = settings: 72 h; remark: listed apart in the source
Method in brief: as §3

DU-4475 [31] = settings: 72 h; remark: listed apart in the source
Method in brief: as §3

HDQ-P1 [32] = settings: 72 h
Method in brief: as §3

MDA-MB-453 [33] = settings: 72 h; remark: listed apart in the source
Method in brief: as §3

BT-474 [34] = settings: 72 h
Method in brief: as §3

HCC1143 [35] = settings: 72 h; remark: listed apart in the source
Method in brief: as §3

MDA-MB-231 [36] = settings: 72 h; remark: listed apart in the source
Method in brief: as §3

MFM-223 [37] = settings: 72 h; remark: listed apart in the source
Method in brief: as §3

SK-BR-3 [38] = settings: 72 h; remark: listed apart in the source
Method in brief: as §3

BT-474 [39] = settings: 72 h; remark: listed apart in the source
Method: as §2

BT-549 [40] = settings: 72 h; remark: listed apart in the source
Method: as §2

CAL-85-1 [41] = settings: 72 h; remark: listed apart in the source
Method: as §2

HCC1143 [42] = settings: 72 h; remark: listed apart in the source
Method: as §2

HCC1937 [43] = settings: 72 h; remark: listed apart in the source
Method: as §2

HDQ-P1 [44] = settings: 72 h; remark: listed apart in the source
Method: as §2

Hs578T [45] = settings: 72 h; remark: listed apart in the source
Method: as §2

MCF-10A [46] = settings: 72 h; remark: listed apart in the source
Method: as §2

MDA-MB-231 [47] = settings: 72 h; remark: listed apart in the source
Method: as §2

MFM-223 [48] = settings: 72 h; remark: listed apart in the source
Method: as §2

Structure (SMILES): CC1(C)CCC(CN2CCN(c3ccc(C(=O)NS(=O)(=O)c4ccc(NCC5CCOCC5)c([N+](=O)[O-])c4)c(Oc4cnc5[nH]ccc5c4)c3)CC2)=C(c2ccc(Cl)cc2)C1 [ABT-199]
EC50, CellTiter-Glo (CAL-51 [1]): 702 nM | EC50, CellTox Green (CAL-120 [2]): > 10000 nM | EC50, CellTox Green (MDA-MB-468 [3]): 3.5 nM | drug sensitivity score (HDQ-P1 [4]): 0

Structure (SMILES): Oc1ncnc2[nH]ncc12 [Allopurinol]
drug sensitivity score (HDQ-P1 [4]): 0

EC50, CellTiter-Blue viability (HCC1937 [6]): 398 nM
Structure (SMILES): O=C1CN2Cc3c(ccc(Cl)c3Cl)N=C2N1 [Anagrelide]
EC50, CellTiter-Glo (CAL-51 [1]): > 10000 nM | EC50, CellTiter-Blue viability (CAL-51 [5]): 77.5 nM | EC50, CellTox Green (CAL-51 [7]): 30.6 nM | drug sensitivity score (HDQ-P1 [4]): 0

EC50, CellTiter-Glo (BT-549 [8]): 1280 nM | EC50, CellTiter-Glo (HCC1599): 1290 nM | EC50, CellTiter-Glo (MDA-MB-436 [9]): 1120 nM | EC50, CellTiter-Blue viability (BT-549 [10]): 2570 nM | EC50, CellTiter-Blue viability (HCC1937 [6]): > 10000 nM | EC50, CellTiter-Blue viability (MDA-MB-436 [13]): 1060 nM | EC50, CellTiter-Blue viability (MDA-MB-468 [14]): 650 nM
Structure (SMILES): Nc1ncn([C@@H]2O[C@H](CO)[C@@H](O)[C@H]2O)c(=O)n1 [Azacitidine]
EC50, CellTiter-Blue viability (CAL-120 [11]): > 10000 nM | EC50, CellTiter-Blue viability (Hs578T [12]): 6120 nM | EC50, CellTox Green (MDA-MB-436 [15]): > 10000 nM | EC50, CellTox Green (MDA-MB-468 [3]): 595 nM | drug sensitivity score (HDQ-P1 [4]): 0

Structure (SMILES): O=NN(CCCl)C(=O)NCCCl [Carmustine]
drug sensitivity score (HDQ-P1 [4]): 0

Structure (SMILES): CC1=C2C[C@H]3[C@@H](CC=C4C[C@@H](O)CC[C@@]43C)[C@@H]2CC[C@]12O[C@@H]1C[C@H](C)CN[C@H]1[C@H]2C [Cyclopamine]
drug sensitivity score (HDQ-P1 [4]): 0

EC50, CellTiter-Glo (BT-549 [8]): 852 nM | EC50, CellTiter-Glo (HCC1143 [18]): 832 nM | EC50, CellTiter-Glo (HCC1599): 3970 nM | EC50, CellTiter-Glo (HCC1937 [19]): 696 nM | EC50, CellTiter-Glo (MDA-MB-436 [9]): 1570 nM | EC50, CellTiter-Glo (SK-BR-3 [21]): 6450 nM
Structure (SMILES): CC(=O)N(O)CCCCCNC(=O)CCC(=O)N(O)CCCCCNC(=O)CCC(=O)N(O)CCCCCN [Deferoxamine]
EC50, CellTiter-Glo (CAL-148 [16]): 1920 nM | EC50, CellTiter-Glo (CAL-51 [1]): 6360 nM | EC50, CellTiter-Glo (DU-4475 [17]): 3480 nM | EC50, CellTiter-Glo (Hs578T [20]): 2660 nM | EC50, CellTox Green (CAL-148 [22]): 221 nM | EC50, CellTox Green (CAL-51 [7]): 1900 nM | drug sensitivity score (HDQ-P1 [4]): 0

EC50, CellTiter-Glo (BT-549 [8]): 1.03 nM | EC50, CellTiter-Glo (HCC1143 [18]): 1.17 nM | EC50, CellTiter-Glo (HCC1599): 12.2 nM | EC50, CellTiter-Glo (HCC1937 [19]): 0.69 nM | EC50, CellTiter-Glo (MDA-MB-231 [26]): 5.5 nM | EC50, CellTiter-Glo (MDA-MB-436 [9]): 2.14 nM | EC50, CellTiter-Glo (MDA-MB-453 [27]): 7.15 nM | EC50, CellTiter-Glo (SK-BR-3 [21]): 1.37 nM | EC50, CellTiter-Blue viability (MDA-MB-453 [33]): 2.02 nM | EC50, CellTiter-Blue viability (BT-474 [34]): 6.71 nM | EC50, CellTiter-Blue viability (BT-549 [10]): 1.03 nM | EC50, CellTiter-Blue viability (HCC1143 [35]): 1.71 nM | EC50, CellTiter-Blue viability (HCC1937 [6]): 1.02 nM | EC50, CellTiter-Blue viability (MDA-MB-231 [36]): 2.39 nM | EC50, CellTiter-Blue viability (MDA-MB-436 [13]): 2.53 nM | EC50, CellTiter-Blue viability (MDA-MB-468 [14]): 0.808 nM | EC50, CellTiter-Blue viability (SK-BR-3 [38]): 1.9 nM
Structure (SMILES): CC(=O)O[C@@]12CO[C@@H]1C[C@H](O)[C@@]1(C)C(=O)[C@H](O)C3=C(C)[C@@H](OC(=O)[C@H](O)[C@@H](NC(=O)OC(C)(C)C)c4ccccc4)C[C@@](O)([C@@H](OC(=O)c4ccccc4)[C@H]21)C3(C)C [Docetaxel]
EC50, CellTiter-Glo (CAL-120 [23]): 3.3 nM | EC50, CellTiter-Glo (CAL-148 [16]): 1.52 nM | EC50, CellTiter-Glo (CAL-51 [1]): 5.86 nM | EC50, CellTiter-Glo (CAL-85-1 [24]): 1.46 nM | EC50, CellTiter-Glo (DU-4475 [17]): 8.31 nM | EC50, CellTiter-Glo (Hs578T [20]): 2.47 nM | EC50, CellTiter-Glo (MCF-10A [25]): 1.04 nM | EC50, CellTiter-Glo (MFM-223 [28]): 3.29 nM | EC50, CellTiter-Blue viability (CAL-148 [29]): 1.85 nM | EC50, CellTiter-Blue viability (CAL-51 [5]): 4.62 nM | EC50, CellTiter-Blue viability (CAL-85-1 [30]): 2.27 nM | EC50, CellTiter-Blue viability (DU-4475 [31]): 2.52 nM | EC50, CellTiter-Blue viability (HDQ-P1 [32]): 1.39 nM | EC50, CellTiter-Blue viability (CAL-120 [11]): 2.27 nM | EC50, CellTiter-Blue viability (Hs578T [12]): 1.36 nM | EC50, CellTiter-Blue viability (MFM-223 [37]): 2.57 nM | EC50, CellTox Green (BT-474 [39]): 5.12 nM | EC50, CellTox Green (BT-549 [40]): 57.8 nM | EC50, CellTox Green (CAL-51 [7]): 1.63 nM | EC50, CellTox Green (CAL-85-1 [41]): 1.87 nM | EC50, CellTox Green (HCC1143 [42]): 108 nM | EC50, CellTox Green (HCC1937 [43]): 946 nM | EC50, CellTox Green (HDQ-P1 [44]): 123 nM | EC50, CellTox Green (Hs578T [45]): 4.24 nM | EC50, CellTox Green (MCF-10A [46]): 3.14 nM | EC50, CellTox Green (MDA-MB-231 [47]): 1.94 nM | EC50, CellTox Green (MFM-223 [48]): 12.2 nM | drug sensitivity score (HDQ-P1 [4]): 6.92

— the supplement of paper PMC4862054
